What was measured:
Type in all cases: cell-based, Escherichia coli
[1] = test system: EKO-35 araC::acrBD408A; assay: MIC susceptibility profiling, efflux platform; conditions: for Fold change of MICs: EKO-35 araC::acrBD408A compared to EKO-35; for Minimum Inhibitory Concentration, EKO-35 araC::acrBD408A: Table 13B, non-porinated, technical duplicate
Summary of the method: (§1)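 Growth inhibition was scored by OD600, with readings taken before incubation subtracted from those after. Cells were grown in MHB II at 37 °C for 18 h with aeration, against duplicate 2-fold compound series and DMSO-only wells. Inoculum: PBS suspension at OD600 ~1.0 diluted 1/2000.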

[2] = test system: EKO-35 araC::acrEF; assay: MIC susceptibility profiling, efflux platform; conditions: for Fold change of MICs: EKO-35 araC::acrEF compared to EKO-35; for Minimum Inhibitory Concentration, EKO-35 araC::acrEF: Table 13A, non-porinated, technical duplicate
Summary of the method: as §1

[3] = test system: EKO-35 araC::emrAB; assay: MIC susceptibility profiling, efflux platform; conditions: for Fold change of MICs: EKO-35 araC::emrAB compared to EKO-35; for Minimum Inhibitory Concentration, EKO-35 araC::emrAB: Table 13B, non-porinated, technical duplicate
Summary of the method: as §1

[4] = test system: EKO-35 araC::emrKY; assay: MIC susceptibility profiling, efflux platform; conditions: for Fold change of MICs: EKO-35 araC::emrKY compared to EKO-35; for Minimum Inhibitory Concentration, EKO-35 araC::emrKY: Table 13B, non-porinated, technical duplicate
Summary of the method: as §1

[5] = test system: EKO-35 araC::macAB; assay: MIC susceptibility profiling, efflux platform; conditions: for Fold change of MICs: EKO-35 araC::macAB compared to EKO-35; for Minimum Inhibitory Concentration, EKO-35 araC::macAB: Table 13B, non-porinated, technical duplicate
Summary of the method: as §1

[6] = test system: EKO-35 araC::mdtEF; assay: MIC susceptibility profiling, efflux platform; conditions: for Fold change of MICs: EKO-35 araC::mdtEF compared to EKO-35; for Minimum Inhibitory Concentration, EKO-35 araC::mdtEF: Table 13A, non-porinated, technical duplicate
Summary of the method: as §1

[7] = test system: wild-type (WT) K-12-Pore; assay: microbe, parasite or virus in culture; conditions: technical duplicate; for Minimum inhibitory concentration (MIC), Pore K-12: Table 10, with pore; for Minimum inhibitory concentration, K-12 (WT)-Pore: Table 14A, porinated
Summary of the method: (§2)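 E. coli strains carrying a genomically integrated constitutive fhuA ΔC/Δ4L pore were grown 18 h in LB at 37 °C, then diluted 1/2000 in MHB II from OD600 ~1.0. Compounds were tested in duplicate, 2-fold serial titration, for 18 h at 37 °C with shaking. MIC came from OD600 with the pre-incubation background subtracted.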

[8] = test system: ΔtolC-Pore; assay: microbe, parasite or virus in culture; conditions: technical duplicate; for Minimum inhibitory concentration (MIC), Pore ΔtolC: Table 10, with pore; for Minimum inhibitory concentration, ΔtolC-Pore: Table 14A, porinated
Summary of the method: as §2

[9] = test system: EKO-35 araC::acrB Pore; assay: MIC susceptibility profiling, porinated efflux platform; conditions: for Fold changes of MICs: EKO-35 araC::acr-B Pore compared to EKO-35-Pore; for Minimum inhibitory concentration, EKO-35 araC::acrB Pore: Table 14A, porinated, technical duplicate
Summary of the method: as §2

[10] = test system: EKO-35 araC::acrBD408A Pore; assay: as above; conditions: for Minimum inhibitory concentration: EKO-35 araC::acrBD408A Pore, technical duplicate
Summary of the method: as §2

[11] = test system: EKO-35 araC::acrD Pore; assay: as above; conditions: for Fold changes of MICs: EKO-35 araC::acrD Pore compared to EKO-35-Pore; for Minimum inhibitory concentration, EKO-35 araC::acrD Pore: Table 14A, porinated, technical duplicate
Summary of the method: as §2

[12] = test system: EKO-35 araC::acrEF Pore; assay: as above; conditions: for Fold changes of MICs: EKO-35 araC::acrEF Pore compared to EKO-35-Pore; for Minimum inhibitory concentration, EKO-35 araC::acrEF Pore: Table 14A, porinated, technical duplicate
Summary of the method: as §2

[13] = test system: EKO-35 araC::emrAB Pore; assay: as above; conditions: for Fold changes of MICs: EKO-35 araC::emrAB Pore compared to EKO-35-Pore; for Minimum inhibitory concentration: EKO-35 araC::emrAB Pore, technical duplicate
Summary of the method: as §2

[14] = test system: EKO-35 araC::emrKY Pore; assay: as above; conditions: for Fold changes of MICs: EKO-35 araC::emrKY Pore compared to EKO-35-Pore; for Minimum inhibitory concentration: EKO-35 araC::emrKY Pore, technical duplicate
Summary of the method: as §2

[15] = test system: EKO-35 araC::macAB Pore; assay: as above; conditions: for Fold changes of MICs: EKO-35 araC::macAB Pore compared to EKO-35-Pore; for Minimum inhibitory concentration: EKO-35 araC::macAB Pore, technical duplicate
Summary of the method: as §2

[16] = test system: EKO-35 araC::mdtBC Pore; assay: as above; conditions: for Fold changes of MICs: EKO-35 araC::mdtBC Pore compared to EKO-35-Pore; for Minimum inhibitory concentration: EKO-35 araC::mdtBC Pore, technical duplicate
Summary of the method: as §2

[17] = test system: EKO-35 araC::mdtEF Pore; assay: as above; conditions: for Fold changes of MICs: EKO-35 araC::mdtEF Pore compared to EKO-35-Pore; for Minimum inhibitory concentration, EKO-35 araC::mdtEF Pore: Table 14A, porinated, technical duplicate
Summary of the method: as §2

[18] = test system: EKO-35 araC::mexCD Pore; assay: as above; conditions: for Fold changes of MICs: EKO-35 araC::mexCD Pore compared to EKO-35-Pore; for Minimum inhibitory concentration: EKO-35 araC::mexCD Pore, technical duplicate
Summary of the method: as §2

SMILES	Fold change of MICs [1] [fold]	Minimum Inhibitory Concentration, EKO-35 araC::acrBD408A [1] [µg/mL]	Fold change of MICs [2] [fold]	Minimum Inhibitory Concentration, EKO-35 araC::acrEF [2] [µg/mL]	Fold change of MICs [3] [fold]	Minimum Inhibitory Concentration, EKO-35 araC::emrAB [3] [µg/mL]	Fold change of MICs [4] [fold]	Minimum Inhibitory Concentration, EKO-35 araC::emrKY [4] [µg/mL]	Fold change of MICs [5] [fold]	Minimum Inhibitory Concentration, EKO-35 araC::macAB [5] [µg/mL]	Fold change of MICs [6] [fold]	Minimum Inhibitory Concentration, EKO-35 araC::mdtEF [6] [µg/mL]	Minimum inhibitory concentration (MIC), Pore K-12 [7] [µg/mL]	Minimum inhibitory concentration, K-12 (WT)-Pore [7] [µg/mL]	Minimum inhibitory concentration (MIC), Pore ΔtolC [8] [µg/mL]	Minimum inhibitory concentration, ΔtolC-Pore [8] [µg/mL]	Fold changes of MICs [9] [fold]	Minimum inhibitory concentration, EKO-35 araC::acrB Pore [9] [µg/mL]	Minimum inhibitory concentration [10] [µg/mL]	Fold changes of MICs [11] [fold]	further results
Nc1ccccc1SCc1nc(-c2ccc(Cl)cc2)no1 [compound 16]	1	10	32	320	16	160	1	5	1	10	16	160	160	160	5	5	32	160	5	1	Fold changes of MICs ([10]; EKO-35 araC::acrBD408A Pore compared to EKO-35-Pore): 1 fold; Minimum inhibitory concentration, EKO-35 araC::acrD Pore [11]: 5 µg/mL; Fold changes of MICs [12]: 16 fold; Minimum inhibitory concentration, EKO-35 araC::acrEF Pore [12]: 80 µg/mL; Fold changes of MICs [13]: 16 fold; Minimum inhibitory concentration [13]: 80 µg/mL; Fold changes of MICs [14]: 1 fold; Minimum inhibitory concentration [14]: 2.5 µg/mL; Fold changes of MICs [15]: 1 fold; Minimum inhibitory concentration [15]: 5 µg/mL; Fold changes of MICs [16]: 1 fold; Minimum inhibitory concentration [16]: 5 µg/mL; Fold changes of MICs [17]: 16 fold; Minimum inhibitory concentration, EKO-35 araC::mdtEF Pore [17]: 80 µg/mL; Fold changes of MICs [18]: 16 fold; Minimum inhibitory concentration [18]: 80 µg/mL
O=C(Nc1ccccc1C(=O)Nc1nnc(C(F)(F)F)s1)c1ccccc1Cl [compound 19]	1	320	1	320	1	320	1	320	1	320	1	320	320	320	0.625	0.625	1	320	320	1	Minimum inhibitory concentration, EKO-35 araC::acrD Pore [11]: 320 µg/mL; Fold changes of MICs [12]: 1 fold; Minimum inhibitory concentration, EKO-35 araC::acrEF Pore [12]: 320 µg/mL; Fold changes of MICs [13]: 1 fold; Minimum inhibitory concentration [13]: 320 µg/mL; Fold changes of MICs [14]: 1 fold; Minimum inhibitory concentration [14]: 320 µg/mL; Fold changes of MICs [15]: 1 fold; Minimum inhibitory concentration [15]: 320 µg/mL; Fold changes of MICs [16]: 1 fold; Minimum inhibitory concentration [16]: 320 µg/mL; Fold changes of MICs [17]: 1 fold; Minimum inhibitory concentration, EKO-35 araC::mdtEF Pore [17]: 320 µg/mL; Fold changes of MICs [18]: 1 fold; Minimum inhibitory concentration [18]: 320 µg/mL
